Series [1] deals with T1, human mGluR4 (hmGluR4) (Homo sapiens, UniProt Q14833).
T1 construct: expressed in transfected cells; host or cells: HEK-293 cells, transient co-transfection by electroporation
The series can be described thus: Calcium assay EC50 determination, positive allosteric modulator activity on hmGluR4 transiently over-expressed in HEK-293 cells. The format is cell-based. To be noted: PAM mode with EC20 glutamate; hmGluR4 in HEK-293 cells; intracellular calcium (Fluo4AM); read-out: mGluR4 positive allosteric modulator activity, half maximal effective concentration (EC50). The procedure, abridged:
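HEK-293 cells transiently co-transfected with hmGluR4, chimeric G protein and glutamate transporters; Fluo4AM calcium read (ex 485/em 525 nm) on FLIPR Tetra. Compound alone 10 min for agonism, then EC20 glutamate with 3 min recording for PAM activity, versus buffer or EC20 glutamate basal.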
In general terms: Calcium flux is commonly read through the fluorescence of an indicator in the cells.

pEC50: −log10 of the molar value. Values joined by “and” are separate entries in the source; they are usually repeats but may differ in a detail not shown here. Equal entries are not always repeated.

T1 sequence (Q14833 33-912): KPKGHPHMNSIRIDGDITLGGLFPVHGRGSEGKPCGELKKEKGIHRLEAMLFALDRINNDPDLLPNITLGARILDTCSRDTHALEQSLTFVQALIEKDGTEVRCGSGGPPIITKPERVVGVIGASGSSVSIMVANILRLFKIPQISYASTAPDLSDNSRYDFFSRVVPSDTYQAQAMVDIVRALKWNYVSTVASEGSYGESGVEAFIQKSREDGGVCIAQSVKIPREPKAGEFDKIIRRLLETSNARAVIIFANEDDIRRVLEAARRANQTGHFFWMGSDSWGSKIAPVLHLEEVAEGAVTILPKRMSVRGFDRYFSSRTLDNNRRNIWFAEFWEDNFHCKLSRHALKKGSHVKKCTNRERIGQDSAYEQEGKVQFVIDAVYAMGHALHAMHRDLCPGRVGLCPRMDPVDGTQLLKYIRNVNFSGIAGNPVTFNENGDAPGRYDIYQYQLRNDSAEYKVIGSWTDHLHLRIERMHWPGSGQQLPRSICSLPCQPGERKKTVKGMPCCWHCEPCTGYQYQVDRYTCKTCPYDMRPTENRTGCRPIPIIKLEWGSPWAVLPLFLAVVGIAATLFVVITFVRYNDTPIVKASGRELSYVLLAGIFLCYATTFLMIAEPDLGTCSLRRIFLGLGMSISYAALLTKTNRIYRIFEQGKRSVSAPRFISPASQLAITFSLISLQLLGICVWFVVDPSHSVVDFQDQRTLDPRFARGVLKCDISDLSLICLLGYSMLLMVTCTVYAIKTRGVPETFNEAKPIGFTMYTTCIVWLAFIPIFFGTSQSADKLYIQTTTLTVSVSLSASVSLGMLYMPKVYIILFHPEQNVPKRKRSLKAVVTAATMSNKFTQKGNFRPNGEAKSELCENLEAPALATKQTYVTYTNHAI

As to `Cl.O=c1[nH]c(-c2cc3ccccc3cn2)nc2ccc(OCCCc3ccncc3)cc12` [Compound 2, 2-Isoquinolin-3-yl-6-(3-pyridin-4-yl-propoxy)-3H-quinazolin-4-one hydrochloride], the melting point (usually the temperature, or range, at which the solid turns liquid) is above 250 °C. Also, in series [1], the pEC50 was 5.00 to 6.00.

For `Cc1cc(OCC2(F)CCOC2)cc2c(=O)[nH]c(-c3cc(C(F)(F)F)ccn3)nc12` (stereo not shown) [Compound 112, 6-[(3-fluorotetrahydrofuran-3-yl)methoxy]-8-methyl-2-[4-(trifluoromethyl)-2-pyridyl]-3H-quinazolin-4-one], the melting point was in the range of 188 to 195 °C. The pEC50 in series [1] was at least 7.00.

For `Cc1cc(CC(=O)N2CCOCC2)cc2c(=O)[nH]c(-c3cc4cccn4cn3)nc12` [Compound 134, 8-Methyl-6-(2-morpholino-2-oxo-ethyl)-2-pyrrolo[1,2-c]pyrimidin-3-yl-3H-quinazolin-4-one], the melting point was 254 to 256 °C. In series [1], the pEC50 was at least 7.00.

On to `Cl.O=c1[nH]c(-c2cc3sccc3cn2)nc2ccc(OCCN3CCOCC3)cc12` [Compound 35, 6-(2-Morpholin-4-yl-ethoxy)-2-thieno[3,2-c]pyridin-6-yl-3H-quinazolin-4-one hydrochloride], for which the melting point was above 250 °C. Besides, the pEC50 in series [1] is 5.00 to 6.00.

Regarding `Cc1cc(CC(=O)N2CCCOCC2)cc2c(=O)[nH]c(-c3cc4ccsc4cn3)nc12` [Compound 138, 8-Methyl-6-[2-(1,4-oxazepan-4-yl)-2-oxo-ethyl]-2-thieno[2,3-c]pyridin-5-yl-3H-quinazolin-4-one], the melting point was in the range of 215 to 220 °C. Moreover, in series [1], the pEC50 was at least 7.00.

`O=c1[nH]c(-c2cc3ccsc3cn2)nc2ccc(OCCCc3cocn3)cc12` [Compound 64, 6-(3-Oxazol-4-yl-propoxy)-2-thieno[2,3-c]pyridin-5-yl-3H-quinazolin-4-one] returned a melting point of 197 to 199 °C. The pEC50 in series [1] was 6.00 to 7.00.

Regarding `Cc1cc(CN2CCOCC2)cc2c(=O)[nH]c(-c3cc4cccn4cn3)nc12.Cl` [Compound 125, 8-Methyl-6-(morpholinomethyl)-2-pyrrolo[1,2-c]pyrimidin-3-yl-3H-quinazolin-4-one hydrochloride], the melting point was above 250 °C. Also, the pEC50 in series [1] was at least 7.00.

As to `Cc1cc(CCN2CCCCC2)cc2c(=O)[nH]c(-c3cnc4sccc4c3)nc12.Cl` [Compound 128, 8-Methyl-6-(2-piperidin-1-yl-ethyl)-2-thieno[2,3-b]pyridin-5-yl-3H-quinazolin-4-one hydrochloride], the melting point is above 250 °C. Further, the pEC50 in series [1] was 5.00 to 6.00.

`Cc1cc(CCN2CCS(=O)(=O)CC2)cc2c(=O)[nH]c(-c3cc4sccc4cn3)nc12` [Compound 149, 6-(2-(1,1-Dioxidothiomorpholino)ethyl)-8-methyl-2-(thieno[3,2-c]pyridin-6-yl)quinazolin-4(3H)-one] came in with a melting point of 200 to 212 °C. In addition, the pEC50 in series [1] was at least 7.00.

`Cc1cc(CN2CCN(C)C(=O)C2)cc2c(=O)[nH]c(-c3cc(C(F)(F)F)ccn3)nc12.Cl` [Compound 161, 8-Methyl-6-((4-methyl-3-oxopiperazin-1-yl)methyl)-2-(4-(trifluoromethyl)pyridin-2-yl)quinazolin-4(3H)-one hydrochloride] returned a melting point above 250 °C. Further, the pEC50 in series [1] was 6.00 to 7.00.

The molecule `Cc1cc(CCN2CCC(F)(F)CC2)cc2c(=O)[nH]c(-c3cc(C(F)(F)F)ccn3)nc12.Cl` [Compound 165, 6-(2-(4,4-difluoropiperidin-1-yl)ethyl)-8-methyl-2-(4-(trifluoromethyl)pyridin-2-yl)quinazolin-4(3H)-one hydrochloride] came in with a melting point of 240 to 250 °C. In addition, the pEC50 in series [1] was 6.00 to 7.00.

On to `O=c1[nH]c(-c2cc3cccn3cn2)nc2ccc(OCCCc3ccncc3)cc12` [Compound 1, 6-(3-pyridin-4-yl-propoxy)-2-pyrrolo[1,2-c]pyrimidin-3-yl-3H-quinazolin-4-one], for which the melting point was in the range of 202 to 206 °C. In addition, the pEC50 in series [1] is 6.00 to 7.00.

As for `CCC(=O)N1CC(Oc2cc(C)c3nc(-c4cc5ccsc5cn4)[nH]c(=O)c3c2)C1` [Compound 116, 8-methyl-6-(1-propanoylazetidin-3-yl)oxy-2-thieno[2,3-c]pyridin-5-yl-3H-quinazolin-4-one], the melting point is 230 to 240 °C. Moreover, in series [1], the pEC50 is 6.00 to 7.00.

In turn, `Cc1cc(CC(=O)N2CCOCC2)cc2c(=O)[nH]c(-c3cc4ccsc4cn3)nc12` [Compound 127, 8-Methyl-6-(2-morpholino-2-oxo-ethyl)-2-thieno[2,3-c]pyridin-5-yl-3H-quinazolin-4-one] gave a melting point above 250 °C. Besides, the pEC50 in series [1] is 6.00 to 7.00.

Take `Cl.O=c1[nH]c(-c2ccc(C(F)(F)F)cn2)nc2ccc(OCCCc3ccncc3)cc12` [Compound 10, 6-[3-(4-pyridyl)propoxy]-2-[5-(trifluoromethyl)-2-pyridyl]-3H-quinazolin-4-one hydrochloride]: the melting point is above 250 °C. For the same molecule, the pEC50 in series [1] is 6.00 to 7.00.

Take `Cl.O=c1[nH]c(-c2cc3sccc3cn2)nc2ccc(OCCCc3ccncc3)cc12` [Compound 3, 6-(3-Pyridin-4-yl-propoxy)-2-thieno[3,2-c]pyridin-6-yl-3H-quinazolin-4-one hydrochloride]: the melting point was above 250 °C. Further, the pEC50 in series [1] is 6.00 to 7.00 and > 6.00.

For the molecule `COc1cc(CCN2CCOCC2)cc2c(=O)[nH]c(-c3cc(C(F)(F)F)ccn3)nc12.Cl` [Compound 158, 8-Methoxy-6-(2-morpholinoethyl)-2-(4-(trifluoromethyl)pyridin-2-yl)quinazolin-4(3H)-one hydrochloride], the melting point was above 250 °C. For the same molecule, the pEC50 in series [1] is 5.00 to 6.00.

Turning to `Cc1cc(CN2CCC3(CC2)COC3)cc2c(=O)[nH]c(-c3cc4sccc4cn3)nc12` [Compound 155, 8-Methyl-6-(2-oxa-7-azaspiro[3.5]nonan-7-ylmethyl)-2-thieno[3,2-c]pyridin-6-yl-3H-quinazolin-4-one], the melting point is above 250 °C. Further, in series [1], the pEC50 is at least 7.00.

On to `CCC(=O)N1CCC(COc2ccc3nc(-c4cc5ccsc5cn4)[nH]c(=O)c3c2)CC1` [Compound 48, 6-(1-Propionyl-piperidin-4-ylmethoxy)-2-thieno[2,3-c]pyridin-5-yl-3H-quinazolin-4-one], for which the melting point is 234 to 239 °C. Further, the pEC50 in series [1] is 6.00 to 7.00.

The molecule `Cl.O=c1[nH]c(-c2cc3sccc3cn2)nc2ccc(OCCCc3cccnc3)cc12` [Compound 37, 6-(3-Pyridin-3-yl-propoxy)-2-thieno[3,2-c]pyridin-6-yl-3H-quinazolin-4-one hydrochloride] yielded a melting point of 149 to 154 °C. Also, the pEC50 in series [1] is 6.00 to 7.00.

The molecule `Cc1cc(N2CCC3(CCOCC3)CC2)cc2c(=O)[nH]c(-c3cc4sccc4cn3)nc12` [Compound 120, 8-Methyl-6-(3-oxa-9-azaspiro[5.5]undecan-9-yl)-2-(thieno[3,2-c]pyridin-6-yl)quinazolin-4(3H)-one] showed a melting point above 250 °C. The pEC50 in series [1] is at least 7.00.

As to `Cl.O=c1[nH]c(-c2ccc(F)cn2)nc2ccc(OCCCc3ccncc3)cc12` [Compound 8, 2-(5-Fluoro-pyridin-2-yl)-6-(3-pyridin-4-yl-propoxy)-3H-quinazolin-4-one hydrochloride], the melting point is above 250 °C. In series [1], the pEC50 was 5.00 to 6.00.

The molecule `Cc1cc(CN2CCSCC2)cc2c(=O)[nH]c(-c3cc4ccsc4cn3)nc12.Cl` [Compound 137, 8-Methyl-2-thieno[2,3-c]pyridin-5-yl-6-(thiomorpholinomethyl)-3H-quinazolin-4-one hydrochloride] returned a melting point above 250 °C. In addition, the pEC50 in series [1] was at least 7.00.

The molecule `Cc1cc(CCN2CCN(C)C(=O)C2)cc2c(=O)[nH]c(-c3cc4ccsc4cn3)nc12.Cl` [Compound 142, 8-Methyl-6-[2-(4-methyl-3-oxo-piperazin-1-yl)ethyl]-2-thieno[2,3-c]pyridin-5-yl-3H-quinazolin-4-one hydrochloride] registered a melting point above 250 °C. Moreover, the pEC50 in series [1] was 6.00 to 7.00.

`Cc1cc(CCN2CC3(COC3)C2)cc2c(=O)[nH]c(-c3cc4sccc4cn3)nc12` [Compound 146, 8-Methyl-6-[2-(2-oxa-6-azaspiro[3.3]heptan-6-yl)ethyl]-2-thieno[3,2-c]pyridin-6-yl-3H-quinazolin-4-one] displayed a melting point of 160 to 200 °C. In series [1], the pEC50 was 6.00 to 7.00.

On to `Cc1cc(CCN2CCN(C)C(=O)C2)cc2c(=O)[nH]c(-c3cc(C(F)(F)F)ccn3)nc12.Cl` [Compound 144, 8-Methyl-6-[2-(4-methyl-3-oxo-piperazin-1-yl)ethyl]-2-[4-(trifluoromethyl)-2-pyridyl]-3H-quinazolin-4-one hydrochloride], for which the melting point was in the range of 148 to 150 °C. In addition, the pEC50 in series [1] was 6.00 to 7.00.

Consider `Cl.O=c1[nH]c(-c2cc(C(F)(F)F)ccn2)nc2ccc(OCCCc3ccncc3)nc12` [Compound 67, 6-(3-Pyridin-4-yl-propoxy)-2-(4-trifluoromethyl-pyridin-2-yl)-3H-pyrido[3,2-d]pyrimidin-4-one hydrochloride], for which the melting point is above 250 °C. For the same molecule, in series [1], the pEC50 is 6.00 to 7.00.

For the molecule `Cc1cc(OCC2CCN(C)C(=O)C2)cc2c(=O)[nH]c(-c3cc4ccsc4cn3)nc12` (stereo not shown) [Compound 130, 8-Methyl-6-(1-methyl-2-oxo-piperidin-4-ylmethoxy)-2-thieno[2,3-c]pyridin-5-yl-3H-quinazolin-4-one], the melting point was above 250 °C. Further, the pEC50 in series [1] was at least 7.00.

Take `Cl.O=c1[nH]c(-c2ccccn2)nc2ccc(OCCCc3ccncc3)cc12` [Compound 5, 2-Pyridin-2-yl-6-(3-pyridin-4-yl-propoxy)-3H-quinazolin-4-one hydrochloride]: the melting point was above 250 °C. Besides, the pEC50 in series [1] is 6.00 to 7.00 and > 6.00.

Values taken from patent publication US20220089609A1, “SUBSTITUTED QUINAZOLINONE DERIVATIVES AND THEIR USE AS POSITIVE ALLOSTERIC MODULATORS OF MGLUR4” (DOMAIN THERAPEUTICS, priority 2018, published 2022).
